From ChEMBL document CHEMBL6114969, “Ultra-short lipopeptides containing d-amino acid exhibiting excellent stability and antibacterial activity against gram-positive bacteria” (Eur J Med Chem, 2025)
Converted amounts (≈) assume the structure as drawn. The source made the active and inactive calls. No cut-off for these calls is given here.

Experiments:
[1] = tested on: Staphylococcus aureus; test: Antibacterial activity against methicillin-resistant Staphylococcus aureus ATCC 33591 infected in Balb/c mouse model of pneumonia infection assessed as reduction in bleeding in lung at 10 mg/kg, ip administered thrice at 4, 8 and 12 hrs post-infection measured after 24 hrs post-infection by H and E staining based analysis; type: functional, organism-based; conditions: time 20.0 hrs
[2] = tested on: Staphylococcus aureus; test: Antibacterial activity against methicillin-resistant Staphylococcus aureus ATCC 33591 infected in Balb/c mouse model of acute systemic infection assessed as reduction in bacterial count in liver at 10 mg/kg, ip measured after 5 days; type: functional, organism-based; conditions: time 5.0 day
[3] = tested on: Staphylococcus aureus; test: Antibacterial activity against drug-resistant Staphylococcus aureus ATCC 25923 incubated for 18 to 24 hrs; type: functional; conditions: time 18-24 hrs
[4] = Stability in mouse serum assessed as compound degradation measured upto 96 hrs by RP-HPLC analysis; type: ADME, cell-free; conditions: read-out: Drug degradation
[5] = tested on: Staphylococcus aureus; test: Antibacterial activity against methicillin-resistant Staphylococcus aureus ATCC 33591 infected in Balb/c mouse model of skin wound infection assessed as wound heal at 10 mg/kg, ip administered thrice at 1, 24 and 48 hrs post-infection measured after 14 days relative to control; type: functional; conditions: time 14 day
[6] = tested on: Staphylococcus aureus; test: Antibacterial activity against methicillin-resistant Staphylococcus aureus ATCC 33591 infected in Balb/c mouse model of skin wound infection assessed as crusted back wound at 10 mg/kg, ip administered thrice at 1, 24 and 48 hrs post-infection measured after 9 days relative to control; type: functional; conditions: time 9 day
[7] = tested on: Staphylococcus aureus; test: Antibacterial activity against methicillin-resistant Staphylococcus aureus ATCC 33591 infected in Balb/c mouse model of acute systemic infection assessed as reduction in hypoplasia of white pulp in spleen at 10 mg/kg, ip measured after 5 days by H and E staining based analysis; type: functional, organism-based; conditions: time 5.0 day
[8] = tested on: Staphylococcus aureus; test: Antibacterial activity against polymyxin B-resistant methicillin-resistant Staphylococcus aureus ATCC 33591 incubated for 18 to 24 hrs; type: functional; conditions: time 18-24 hrs
[9] = tested on: Staphylococcus aureus; test: Synergistic antibacterial activity against methicillin-resistant Staphylococcus aureus ATCC 33591 assessed as fractional inhibitory concentration index upto 2 times MIC incubated for 18 to 24 hrs in presence of gentamicin by checkerboard assay; type: functional; conditions: time 18-24 hrs
[10] = tested on: Staphylococcus aureus; test: Antibacterial activity against ciprofloxacin-resistant Staphylococcus aureus ATCC 25923 incubated for 18 to 24 hrs; type: functional; conditions: time 18-24 hrs
[11] = tested on: Staphylococcus aureus; test: Antibacterial activity against methicillin-resistant Staphylococcus aureus ATCC 33591 infected in Balb/c mouse model of pneumonia infection assessed as reduction in bacterial load in lung at 10 mg/kg, ip administered thrice at 4, 8 and 12 hrs post-infection measured after 24 hrs post-infection in presence of polymyxin B; type: functional, organism-based; conditions: time 20.0 hrs
[12] = Toxicity in Balb/c mouse assessed as survival rate at 40 mg/kg, ip measured after 7 days; type: organism-based; conditions: in vivo, time 7 day
[13] = tested on: Staphylococcus aureus; test: Synergistic bactericidal activity against persistent methicillin-resistant Staphylococcus aureus ATCC 33591 incubated for 18 to 24 hrs in presence of vancomycin by time-kill assay; type: functional, organism-based; conditions: time 18-24 hrs
[14] = Toxicity in Balb/c mouse assessed as survival rate at 20 to 40 mg/kg, ip measured after 7 days; type: organism-based; conditions: in vivo, dose 20-40 mg/kg, time 7 day
[15] = tested on: Staphylococcus aureus; test: Antibacterial activity against methicillin-resistant Staphylococcus aureus ATCC 33591 infected in Balb/c mouse model of acute systemic infection assessed as reduction in inflammatory cell infiltration in liver at 10 mg/kg, ip measured after 5 days by H and E staining based analysis; type: functional, organism-based; conditions: time 5.0 day
[16] = tested on: Staphylococcus aureus; test: Antibacterial activity against methicillin-resistant Staphylococcus aureus ATCC 33591 infected in Balb/c mouse model of pneumonia infection assessed as reduction in bacterial load in lung at 10 mg/kg, ip administered thrice at 4, 8 and 12 hrs post-infection measured after 24 hrs post-infection; type: functional, organism-based; conditions: time 20.0 hrs
[17] = Retention time of compound by RP-HPLC analysis; type: physicochemical
[18] = Toxicity in Balb/c mouse assessed as cell swelling in spleen at 80 mg/kg, ip measured after 7 days by H and E staining based analysis; type: organism-based; conditions: in vivo, 168 h, time 7 day
[19] = tested on: Staphylococcus epidermidis; test: Antibacterial activity against Staphylococcus epidermidis ATCC 12228 incubated for 18 to 24 hrs by broth microdilution method; type: functional; conditions: time 18-24 hrs
[20] = tested on: Staphylococcus aureus; test: Antibacterial activity against methicillin-resistant Staphylococcus aureus ATCC 33591 infected in Balb/c mouse model of acute systemic infection assessed as reduction in cell swelling in heart at 10 mg/kg, ip measured after 5 days by H and E staining based analysis; type: functional, organism-based; conditions: time 5.0 day
[21] = tested on: Staphylococcus aureus; test: Antibacterial activity against methicillin-resistant Staphylococcus aureus ATCC 33591 incubated for 18 to 24 hrs in presence of 1 mg/ml of trypsin by broth microdilution method; type: functional; conditions: time 18-24 hrs
[22] = tested on: Staphylococcus aureus; test: Antibacterial activity against methicillin-resistant Staphylococcus aureus ATCC 33591 incubated for 18 to 24 hrs by broth microdilution method; type: functional; conditions: time 18-24 hrs
[23] = tested on: Staphylococcus aureus; test: Antibacterial activity against ciprofloxacin-resistant methicillin-resistant Staphylococcus aureus ATCC 33591 incubated for 18 to 24 hrs; type: functional; conditions: time 18-24 hrs
[24] = tested on: Staphylococcus aureus; test: Antibacterial activity against methicillin-resistant Staphylococcus aureus ATCC 33591 infected in Balb/c mouse model of acute systemic infection assessed as reduction in inflammatory cell infiltration in lung at 10 mg/kg, ip measured after 5 days by H and E staining based analysis; type: functional, organism-based; conditions: time 5.0 day
[25] = tested on: Staphylococcus aureus; test: Synergistic bactericidal activity against persistent methicillin-resistant Staphylococcus aureus ATCC 33591 incubated for 18 to 24 hrs in presence of imipenem by time-kill assay; type: functional, organism-based; conditions: time 18-24 hrs
[26] = tested on: Staphylococcus aureus; test: Inhibition of imipenem-induced drug resistance in […] Staphylococcus aureus ATCC 33591 at sub-MIC measured upto 15 passages; type: functional, organism-based
[27] = tested on: Staphylococcus aureus; test: Antibacterial activity against methicillin-resistant Staphylococcus aureus ATCC 33591 infected in Balb/c mouse model of skin wound infection assessed as wound heal at 10 mg/kg, ip administered thrice at 1, 24 and 48 hrs post-infection measured after 14 days in presence of polymyxin B relative to control; type: functional; conditions: time 14 day
[28] = tested on: Staphylococcus aureus; test: Antibacterial activity against methicillin-resistant Staphylococcus aureus ATCC 33591 infected in Balb/c mouse model of pneumonia infection assessed as reduction in inflammatory cell infiltration in lung at 10 mg/kg, ip administered thrice at 4, 8 and 12 hrs post-infection measured after 24 hrs post-infection by H and E staining based analysis; type: functional, organism-based; conditions: time 20.0 hrs
[29] = Toxicity in Balb/c mouse assessed as inflammatory cell infiltration in kidney at 80 mg/kg, ip measured after 7 days by H and E staining based analysis; type: organism-based; conditions: in vivo, 168 h, time 7 day
[30] = tested on: Staphylococcus aureus; test: Antibacterial activity against methicillin-resistant Staphylococcus aureus ATCC 33591 infected in Balb/c mouse model of acute systemic infection assessed as reduction in tubule contraction in kidney at 10 mg/kg, ip measured after 5 days by H and E staining based analysis; type: functional, organism-based; conditions: time 5.0 day
[31] = tested on: Staphylococcus aureus; test: Antibacterial activity against methicillin-resistant Staphylococcus aureus ATCC 33591 infected in Balb/c mouse model of acute systemic infection assessed as reduction in inflammatory cell infiltration in heart at 10 mg/kg, ip measured after 5 days by H and E staining based analysis; type: functional, organism-based; conditions: time 5.0 day
[32] = tested on: Staphylococcus aureus; test: Antibacterial activity against methicillin-resistant Staphylococcus aureus ATCC 33591 infected in Balb/c mouse model of skin wound infection assessed as reduction in bacterial load in skin at 10 mg/kg, ip administered thrice at 1, 24 and 48 hrs post-infection measured after 72 hrs post-infection; type: functional, organism-based; conditions: time 71.0 hrs

## CCCCCCCCCCCC(=O)N[C@H](CCCNC(=N)N)C(=O)N[C@H](CCCNC(=N)N)C(=O)N[C@H](Cc1c[nH]c2ccccc12)C(=O)O
[1]
  Activity: Active
[2]
  Activity: Active
[3]
  MIC: 8 µM (≈ 5.59 µg/mL)
[4]
  metabolised at 96 h: ~20%
[5]
  Activity: 100%
[6]
  Activity: 100%
[7]
  Activity: Active
[8]
  MIC: 16 µM (≈ 11.2 µg/mL)
[9]
  fractional inhibitory concentration index (FICI): 0.125
[10]
  MIC: 8 µM (≈ 5.59 µg/mL)
[11]
  Activity: Active
[12]
  survival at 168 h: 0%
[13]
  Activity: Dose-dependent-effect
[14]
  survival at 168 h: 100%
[15]
  Activity: Active
[16]
  Activity: Active
[17]
  Retention_time: 17.826 min
[18]
  Activity: Toxic
[19]
  MIC: 2 µM (≈ 1.4 µg/mL)
[20]
  Activity: Active
[21]
  MIC: 4 µM
[22]
  MIC: 4 µM (≈ 2.8 µg/mL)
[23]
  MIC: 32 µM (≈ 22.4 µg/mL)
[24]
  Activity: Active
[25]
  Activity: Dose-dependent-effect
[26]
  inhibition: Active
[27]
  Activity: 100%
[28]
  Activity: Active
[29]
  Activity: Toxic
[30]
  Activity: Active
[31]
  Activity: Active
[32]
  Activity: Active
